From patent publication US20230278995A1, “1,3,4-OXADIAZOLE DERIVATIVE COMPOUNDS AS HISTONE DEACETYLASE 6 INHIBITOR, AND THE PHARMACEUTICAL COMPOSITION COMPRISING THE SAME” (CHONG KUN DANG PHARMACEUTICAL CORP., priority 2020, published 2023)

Assays:
human recombinant HDAC1 = target: T1, human recombinant HDAC1 (Homo sapiens, UniProt Q13547); assay: HDAC enzyme activity inhibition assay (HDAC Fluorimetric Drug Discovery Kit), HDAC1; format: biochemical; details: human recombinant HDAC1, Fluor de Lys-SIRT1 substrate, 30° C. 60 minutes
T1 construct: purchased Enzo Life Sciences, Inc. BML-SE456
Procedure, shortened: (§1)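 Recombinant human HDAC1 or HDAC6 (0.3 μg) reacted with 10 μM Fluor de Lys-SIRT1 substrate at 30 °C for 60 min. Developer added for 30 min, then fluorescence read at Ex 360/Em 460.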

human recombinant HDAC6 = target: T2, human recombinant HDAC6 (Homo sapiens, UniProt Q9UBN7); assay: HDAC enzyme activity inhibition assay (HDAC Fluorimetric Drug Discovery Kit), HDAC6; format: biochemical; details: for HDAC6 selectivity (fold): HDAC1 vs HDAC6; for IC50: human recombinant HDAC6, same protocol as HDAC1
T2 construct: purchased Calbiochem Inc. 382180
T2 sequence (Q9UBN7 1-1215): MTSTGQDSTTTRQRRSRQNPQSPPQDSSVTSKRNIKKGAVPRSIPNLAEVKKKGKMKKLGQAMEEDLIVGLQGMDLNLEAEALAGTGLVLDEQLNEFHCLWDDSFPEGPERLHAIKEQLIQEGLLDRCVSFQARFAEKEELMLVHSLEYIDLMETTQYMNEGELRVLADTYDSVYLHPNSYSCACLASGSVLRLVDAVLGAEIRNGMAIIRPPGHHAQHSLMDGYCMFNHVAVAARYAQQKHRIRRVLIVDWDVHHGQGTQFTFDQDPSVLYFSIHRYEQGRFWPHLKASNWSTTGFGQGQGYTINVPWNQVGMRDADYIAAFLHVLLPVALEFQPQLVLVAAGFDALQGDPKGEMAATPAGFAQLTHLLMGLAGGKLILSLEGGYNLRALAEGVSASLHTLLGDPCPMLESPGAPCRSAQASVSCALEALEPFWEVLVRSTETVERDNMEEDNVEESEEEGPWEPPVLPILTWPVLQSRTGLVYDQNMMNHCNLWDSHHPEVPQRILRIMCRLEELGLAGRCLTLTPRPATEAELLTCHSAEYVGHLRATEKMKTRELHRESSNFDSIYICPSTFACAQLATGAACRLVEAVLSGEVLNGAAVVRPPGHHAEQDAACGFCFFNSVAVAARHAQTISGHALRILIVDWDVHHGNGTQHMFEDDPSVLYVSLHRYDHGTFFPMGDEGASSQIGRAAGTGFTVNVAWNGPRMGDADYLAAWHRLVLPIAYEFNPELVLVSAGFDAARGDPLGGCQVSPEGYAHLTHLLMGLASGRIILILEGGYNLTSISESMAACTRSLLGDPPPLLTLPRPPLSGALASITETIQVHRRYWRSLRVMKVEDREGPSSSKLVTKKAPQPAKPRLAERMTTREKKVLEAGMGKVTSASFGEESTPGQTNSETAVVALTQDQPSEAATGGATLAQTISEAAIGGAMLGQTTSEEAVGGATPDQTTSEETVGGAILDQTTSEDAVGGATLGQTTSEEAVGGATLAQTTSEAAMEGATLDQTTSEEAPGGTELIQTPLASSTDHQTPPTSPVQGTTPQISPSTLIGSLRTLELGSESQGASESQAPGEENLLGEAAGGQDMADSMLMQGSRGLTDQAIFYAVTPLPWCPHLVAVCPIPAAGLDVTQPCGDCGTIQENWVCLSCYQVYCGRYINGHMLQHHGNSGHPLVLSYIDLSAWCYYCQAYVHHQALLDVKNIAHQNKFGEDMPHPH
Procedure, shortened: as §1

T1 sequence (Q13547 whole entry): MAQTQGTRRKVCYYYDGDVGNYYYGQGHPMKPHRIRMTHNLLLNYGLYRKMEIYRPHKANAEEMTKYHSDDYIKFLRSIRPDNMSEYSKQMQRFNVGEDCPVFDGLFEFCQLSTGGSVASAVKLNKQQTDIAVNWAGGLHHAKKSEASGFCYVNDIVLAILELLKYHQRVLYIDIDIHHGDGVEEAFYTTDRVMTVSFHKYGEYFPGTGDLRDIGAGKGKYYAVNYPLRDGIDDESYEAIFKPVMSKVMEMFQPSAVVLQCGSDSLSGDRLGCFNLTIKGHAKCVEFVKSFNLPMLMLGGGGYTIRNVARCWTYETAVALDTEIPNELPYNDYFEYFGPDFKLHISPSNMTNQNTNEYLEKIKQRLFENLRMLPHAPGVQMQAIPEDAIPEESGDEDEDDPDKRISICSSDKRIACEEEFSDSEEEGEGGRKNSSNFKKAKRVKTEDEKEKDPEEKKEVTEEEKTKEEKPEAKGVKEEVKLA

SMILES | IC50 (human recombinant HDAC1) [nM] | HDAC6 selectivity (fold) (human recombinant HDAC6) | IC50 (human recombinant HDAC6) [nM]
O=C(N(Cc1ccc(-c2nnc(C(F)F)o2)cn1)c1ccccc1)C1(F)CCN(C2CCC2)CC1 [Compound 2953, 1-cyclobutyl-N-((5-(5-(difluoromethyl)-1,3,4-oxadiazol-2-yl)pyridin-2-yl)methyl)-4-fluoro-N-phenylpiperidine-4-carboxamide] | 44000 | 543 fold | 80.9
CN1CC(F)(C(=O)N(Cc2ccc(-c3nnc(C(F)F)o3)cn2)c2cccc(F)c2)C1 [Compound 3047, N-((5-(5-(difluoromethyl)-1,3,4-oxadiazol-2-yl)pyridin-2-yl)methyl)-3-fluoro-N-(3-fluorophenyl)-1-methylazetidine-3-carboxamide] | 20800 | 242 fold | 85.7

The remaining lines, values ahead:

IC50 (human recombinant HDAC1) [nM] | HDAC6 selectivity (fold) (human recombinant HDAC6) | IC50 (human recombinant HDAC6) [nM] | SMILES
> 50000 | 238 fold | 210 | CCC(=O)N1CCC(F)(C(=O)N(Cc2ccc(-c3nnc(C(F)F)o3)cc2F)c2ccccc2)CC1 [Compound 3439, N-(4-(5-(difluoromethyl)-1,3,4-oxadiazol-2-yl)-2-fluorobenzyl)-4-fluoro-N-phenyl-1-propionylpiperidine-4-carboxamide]
31600 | 1,618 fold | 19.5 | O=C(N(Cc1ccc(-c2nnc(C(F)F)o2)cn1)c1cccc(F)c1)C1(F)CN(C2CN(C3CCCC3)C2)C1 [Compound 3396, 1′-cyclopentyl-N-((5-(5-(difluoromethyl)-1,3,4-oxadiazol-2-yl)pyridin-2-yl)methyl)-3-fluoro-N-(3-fluorophenyl)-[1,3′-biazetidine]-3-carboxamide]
> 50000 | 988 fold | 50.6 | CN1CC(N2CC(F)(C(=O)N(Cc3ccc(-c4nnc(C(F)F)o4)cn3)c3cccc(F)c3)C2)C1 [Compound 3219, N-((5-(5-(difluoromethyl)-1,3,4-oxadiazol-2-yl)pyridin-2-yl)methyl)-3-fluoro-N-(3-fluorophenyl)-1′-methyl-[1,3′-biazetidine]-3-carboxamide]
> 50000 | 624 fold | 80.1 | CCN1CC(F)(C(=O)N(Cc2ccc(-c3nnc(C(F)F)o3)cc2F)c2ccccc2)C1 [Compound 3430, N-(4-(5-(difluoromethyl)-1,3,4-oxadiazol-2-yl)-2-fluorobenzyl)-1-ethyl-3-fluoro-N-phenylazetidine-3-carboxamide]
